From ChEMBL document CHEMBL1201862, “PubChem BioAssay data set” (2004)
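Protocol summary: plate cells (96-well), add compound at 5 concentrations, incubate 48 h, interpolate endpoints linearly. The concentration for 50% growth inhibition is given as GI50.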 Active and inactive are the calls of the source. Rule as the data show it: active = GI50 up to about 1.1 µM and inactive = higher.

Experiments:
Assay in all cases: DTP human tumour cell line panel, 48 h
[1] = system: K562
[2] = system: SK-MEL-28
[3] = system: NCI-H522
[4] = system: Malme-3M
[5] = system: SNB-75
[6] = system: OVCAR-5
[7] = system: SK-OV-3
[8] = system: SNB-19
[9] = system: UACC-257
[10] = system: SN12C
[11] = system: ACHN
[12] = system: OVCAR-3
[13] = system: HOP-92
[14] = system: KM12
[15] = system: HCT-15
[16] = system: IGROV-1
[17] = system: RXF 393
[18] = system: HCC 2998
[19] = system: SF-539

Row | Structure (SMILES) | GI50 [1] | GI50 [2] | GI50 [3] | GI50 [4] | GI50 [5] | GI50 [6] | GI50 [7] | GI50 [8] | GI50 [9] | GI50 [10] | GI50 [11] | GI50 [12] | GI50 [13] | GI50 [14] | GI50 [15] [µM] | GI50 [16] | GI50 [17] | GI50 [18] | GI50 [19]
1 | COc1ccc(-c2ccc(CC(=O)O)cc2)cc1OC | > 100 µM (inactive) | > 100 µM (inactive) | > 100 µM (inactive) | > 100 µM (inactive) | 97.5 µM (inactive) | > 100 µM (inactive) | > 100 µM (inactive) | > 100 µM (inactive) | > 100 µM (inactive) | > 100 µM (inactive) | > 100 µM (inactive) | > 100 µM (inactive) | > 100 µM (inactive) | > 100 µM (inactive) |  |  |  |  | 
2 | N#CC(Nc1cccc(C(F)(F)F)c1)c1ccccc1C(F)(F)F (configuration not stated) | 14.5 µM (inactive) | 17.9 µM (inactive) | 6.71 µM (inactive) | 7.33 µM (inactive) | 18.3 µM (inactive) | 14.8 µM (inactive) | 17.6 µM (inactive) | 17.3 µM (inactive) | 14.6 µM (inactive) | 7.4 µM (inactive) | 14.5 µM (inactive) | 6.52 µM (inactive) |  | 7.52 µM (inactive) | 7 | 22.7 µM (inactive) | 12.2 µM (inactive) | 7.78 µM (inactive) | 18.4 µM (inactive)
3 | NCCSc1nc(N)c2ncn(C3OC(CO)C(O)C3O)c2n1 (configuration not stated) | > 100 µM (inactive) | > 100 µM (inactive) | > 100 µM (inactive) | > 100 µM (inactive) | > 100 µM (inactive) | > 100 µM (inactive) | > 100 µM (inactive) | > 100 µM (inactive) | > 100 µM (inactive) | > 100 µM (inactive) | > 100 µM (inactive) | > 100 µM (inactive) | > 100 µM (inactive) | > 100 µM (inactive) | > 100 | > 100 µM (inactive) |  | > 100 µM (inactive) | > 100 µM (inactive)
4 | CCCCCCCCCCCCCCCCCCC1=C(O)C(=O)C=C(OC)C1=O |  | 36.4 µM (inactive) | 28.4 µM (inactive) | 64.9 µM (inactive) | 30.6 µM (inactive) | 39.5 µM (inactive) | > 100 µM (inactive) | 61.4 µM (inactive) | 78.2 µM (inactive) | 45.4 µM (inactive) | 28.7 µM (inactive) | 41.8 µM (inactive) | 80.4 µM (inactive) | 35.2 µM (inactive) | 29.5 | 38.8 µM (inactive) | 43.6 µM (inactive) | 38.3 µM (inactive) | 45.1 µM (inactive)
5 | CC(C)C1=CC23CCC4C(C)(C(=O)O)CCCC4(C)C2CC1C1C(=O)N(CCCCCCN2C(=O)C4C5CC6C7(C)CCCC(C)(C(=O)O)C7CCC6(C=C5C(C)C)C4C2=O)C(=O)C13 (configuration not stated) | 16.6 µM (inactive) | 11.3 µM (inactive) | 12 µM (inactive) | 16.7 µM (inactive) |  | 22.4 µM (inactive) |  | 10.5 µM (inactive) |  | 14 µM (inactive) | 10.9 µM (inactive) | 13.9 µM (inactive) | 21.7 µM (inactive) | 11.4 µM (inactive) | 14.8 |  | 14.2 µM (inactive) | 12.7 µM (inactive) | > 10 µM (inactive)
6 | CN(C)c1ccc(/C=C/C(=O)C(C)(C)C)cc1Br | 25.2 µM (inactive) | 17.8 µM (inactive) | 16.1 µM (inactive) | 28.4 µM (inactive) | 20.1 µM (inactive) | 49 µM (inactive) | 52.1 µM (inactive) | 31.6 µM (inactive) | 24 µM (inactive) | 24.9 µM (inactive) | 31.5 µM (inactive) | 33.3 µM (inactive) |  | 24.1 µM (inactive) | 19.9 | 35.4 µM (inactive) |  | 27.4 µM (inactive) | 25.1 µM (inactive)
7 | Cc1ccc(SC(CCC(Sc2ccc(C)cc2)Sc2ccc(C)cc2)Sc2ccc(C)cc2)cc1 | > 100 µM (inactive) | > 100 µM (inactive) | > 100 µM (inactive) |  | > 100 µM (inactive) |  | > 100 µM (inactive) | > 100 µM (inactive) | > 100 µM (inactive) | > 100 µM (inactive) | > 100 µM (inactive) | > 100 µM (inactive) | 71.1 µM (inactive) | > 100 µM (inactive) | > 100 | > 100 µM (inactive) | > 100 µM (inactive) |  | > 100 µM (inactive)
8 | CCCNC(=O)Nc1c([N+](=O)[O-])cc(C(F)(F)F)cc1[N+](=O)[O-] | 47.1 µM (inactive) | > 100 µM (inactive) | 31.3 µM (inactive) |  | 34 µM (inactive) | > 100 µM (inactive) | > 100 µM (inactive) | > 100 µM (inactive) | 36.3 µM (inactive) |  | 89.9 µM (inactive) | 22.3 µM (inactive) | > 100 µM (inactive) | 55.5 µM (inactive) | 51.8 | > 100 µM (inactive) | 11 µM (inactive) |  | 71.3 µM (inactive)
9 | Cc1ccc(/C=C2\Cc3cccc(C)c3C2=O)c(C(=O)O)c1 | 99.8 µM (inactive) | 97.3 µM (inactive) | 22.3 µM (inactive) | > 100 µM (inactive) | > 100 µM (inactive) | > 100 µM (inactive) |  | > 100 µM (inactive) | > 100 µM (inactive) | > 100 µM (inactive) | 28.7 µM (inactive) | 94.2 µM (inactive) | 17.3 µM (inactive) | 55.5 µM (inactive) | 39.2 | 96.6 µM (inactive) | 29.3 µM (inactive) | 39.1 µM (inactive) | 74.8 µM (inactive)
10 | O=C(O)CSc1ccc2nc3ccccc3c(O)c2c1 | > 100 µM (inactive) | > 100 µM (inactive) |  | > 100 µM (inactive) |  | > 100 µM (inactive) | > 100 µM (inactive) | > 100 µM (inactive) | > 100 µM (inactive) | > 100 µM (inactive) | > 100 µM (inactive) | > 100 µM (inactive) | > 100 µM (inactive) |  | > 100 | > 100 µM (inactive) |  | > 100 µM (inactive) | 
11 | CC1=CCC2(C#N)CCC1C2O (configuration not stated) | > 100 µM (inactive) | > 100 µM (inactive) | > 100 µM (inactive) | > 100 µM (inactive) | > 100 µM (inactive) | > 100 µM (inactive) | > 100 µM (inactive) | > 100 µM (inactive) | > 100 µM (inactive) | > 100 µM (inactive) | > 100 µM (inactive) | > 100 µM (inactive) |  | > 100 µM (inactive) | > 100 | > 100 µM (inactive) | > 100 µM (inactive) | > 100 µM (inactive) | > 100 µM (inactive)
12 | COc1ccccc1/N=N/c1c(-c2ccccc2)nn(C(=O)CC(=O)Nc2ccccc2Cl)c1-c1ccccc1 | > 100 µM (inactive) | > 100 µM (inactive) | > 100 µM (inactive) | > 100 µM (inactive) | > 100 µM (inactive) | > 100 µM (inactive) | > 100 µM (inactive) | > 100 µM (inactive) | > 100 µM (inactive) | > 100 µM (inactive) | > 100 µM (inactive) | > 100 µM (inactive) |  | > 100 µM (inactive) | > 100 | > 100 µM (inactive) | 24.6 µM (inactive) | > 100 µM (inactive) | > 100 µM (inactive)
13 | COc1cc2c(cc1OC)C(=O)Cc1ccc3c(c1CNCC2)OCO3 | > 100 µM (inactive) | > 100 µM (inactive) | > 100 µM (inactive) | > 100 µM (inactive) | > 100 µM (inactive) | > 100 µM (inactive) | > 100 µM (inactive) | > 100 µM (inactive) | > 100 µM (inactive) | > 100 µM (inactive) | > 100 µM (inactive) | > 100 µM (inactive) |  | > 100 µM (inactive) | > 100 | > 100 µM (inactive) |  | > 100 µM (inactive) | > 100 µM (inactive)
14 | OCC12C=CC(C1)c1ccccc12 (configuration not stated) | > 100 µM (inactive) | > 100 µM (inactive) |  | > 100 µM (inactive) |  | > 100 µM (inactive) | > 100 µM (inactive) | > 100 µM (inactive) | > 100 µM (inactive) | > 100 µM (inactive) | > 100 µM (inactive) | > 100 µM (inactive) | > 100 µM (inactive) |  | > 100 | > 100 µM (inactive) |  | > 100 µM (inactive) | 
15 | COc1ccc(C(=O)OCC2OC(n3cnc4c(=S)nc[nH]c43)C(OC(=O)c3ccc(OC)cc3)C2OC(=O)c2ccc(OC)cc2)cc1 (configuration not stated) | 3.27 µM (inactive) | > 100 µM (inactive) | 7 µM (inactive) | 32.2 µM (inactive) | 7.52 µM (inactive) | 23.1 µM (inactive) |  | > 100 µM (inactive) | 16.8 µM (inactive) |  | 76.9 µM (inactive) | 5.06 µM (inactive) | 6.05 µM (inactive) | 45.6 µM (inactive) | 47.2 | 57 µM (inactive) |  | 9.35 µM (inactive) | 20.5 µM (inactive)
16 | N#CC1=C(N)n2c(s/c(=C\c3ccc(Cl)cc3)c2=O)=C(c2nc3ccccc3[nH]2)C1c1ccc(Cl)cc1 (configuration not stated) | 1.91 µM (inactive) | 1.53 µM (inactive) | 1.96 µM (inactive) | 2.25 µM (inactive) | 2.77 µM (inactive) | 2.02 µM (inactive) |  | 3.28 µM (inactive) | 2.48 µM (inactive) | 2.19 µM (inactive) | 2.29 µM (inactive) | 1.8 µM (inactive) | 0.203 µM (active) | 1.42 µM (inactive) | 2.06 | 2.28 µM (inactive) |  | 0.411 µM (active) | 1.98 µM (inactive)
17 | CC(C)c1cccc(C(C)C)c1NC(=O)C(=O)C1CCC2=C(Sc3ccccc3N2)C1=O (configuration not stated) | 34.9 µM (inactive) | > 100 µM (inactive) |  | > 100 µM (inactive) | 32.3 µM (inactive) | 41.5 µM (inactive) | 60.8 µM (inactive) | > 100 µM (inactive) | 67.3 µM (inactive) | 28.8 µM (inactive) | > 100 µM (inactive) | > 100 µM (inactive) | > 100 µM (inactive) | > 100 µM (inactive) | 61.7 | > 100 µM (inactive) | > 100 µM (inactive) | > 100 µM (inactive) | 31.3 µM (inactive)
